Assay results: ChEMBL document CHEMBL1649450, “In vitro activity of micafungin against planktonic and sessile Candida albicans isolates” (2009)
In brackets after ≈: the same amount, converted by molar mass. *1 amine or outer side, *2 acyl side, *3 side chain or, on linkers, in order; H or OH if unused. Where a SMILES comes first, the peptide text is derived from it. Bridges are numbered along the chain shown (N, C = ends). [ ]: non-standard residue; d: D form. The star is where a group is joined. hTyr(3S-OH,4S-OH,3'-OSO3H) = N[C@H](C(=O)O)[C@H](O)[C@@H](O)c1ccc(O)c(OS(=O)(=O)O)c1; pTerphenylCO(4''-OnC5H11) = CCCCCOc1ccc(-c2ccc(-c3ccc(C(=O)*)cc3)cc2)cc1; Orn(4R-OH,5R-OH) = O=C([C@H](C[C@@H](O)[C@@H](O)N[*:3])N[*:1])[*:2]; hTyr(3S-OH,4S-OH) = N[C@H](C(=O)O)[C@H](O)[C@@H](O)c1ccc(O)cc1; Pro(3S-OH,4S-Me) = C[C@H]1CN[C@H](C(=O)O)[C@H]1O; X1 = CCCCCOc1ccc(-c2cc(-c3ccc(C(=O)*)cc3)no2)cc1; Gln(3R-OH) = NC(=O)C[C@@H](O)[C@H](N)C(=O)O; Hyp = O=C(O)[C@@H]1C[C@@H](O)CN1

What was measured:
Format in all cases: functional
[1] = system: Candida albicans; assay: Antimicrobial activity against Candida albicans clinical isolate biofilm by broth microdilution method
[2] = system: Candida albicans; assay: Antimicrobial activity against Candida albicans clinical isolate sessile cells by microtiter plated based assay
[3] = system: Candida albicans; assay: Antimicrobial activity against Candida albicans GDH 2346 planktonic cells by broth microdilution method
[4] = system: Candida albicans; assay: Antimicrobial activity against Candida albicans GDH 2346 sessile cells by microtiter plated based assay
[5] = system: Candida albicans; assay: Antimicrobial activity against Candida albicans clinical isolates planktonic cells by broth microdilution method

MIC50 [2] [µg/mL] | MIC90 [2] [µg/mL] | MIC [3] [µg/mL] | MIC [4] [µg/mL] | MIC50 [5] [µg/mL] | MIC90 [5] [µg/mL] | SMILES | MIC90 [1] [µg/mL]
 |  |  |  |  |  | CC[C@H](C)C[C@H](C)CCCCCCCCC(=O)N[C@H]1C[C@@H](O)[C@@H](NCCN)NC(=O)[C@@H]2[C@@H](O)CCN2C(=O)[C@H]([C@H](O)CCN)NC(=O)[C@H]([C@H](O)[C@@H](O)c2ccc(O)cc2)NC(=O)[C@@H]2C[C@@H](O)CN2C(=O)[C@H]([C@@H](C)O)NC1=O [CASPOFUNGIN] | 2 (≈ 1.83 µM)
0.5 (≈ 0.394 µM) | 0.5 (≈ 0.394 µM) | 0.06 (≈ 0.0472 µM) | 0.53 (≈ 0.417 µM) | 0.125 (≈ 0.0984 µM) | 0.125 (≈ 0.0984 µM) | CCCCCOc1ccc(-c2cc(-c3ccc(C(=O)N[C@H]4C[C@@H](O)[C@@H](O)NC(=O)[C@@H]5[C@@H](O)[C@@H](C)CN5C(=O)[C@H]([C@H](O)CC(N)=O)NC(=O)[C@H]([C@H](O)[C@@H](O)c5ccc(O)c(OS(=O)(=O)O)c5)NC(=O)[C@@H]5C[C@@H](O)CN5C(=O)[C@H]([C@@H](C)O)NC4=O)cc3)no2)cc1 [MICAFUNGIN] (X1-[Orn(4R-OH,5R-OH)]T[Hyp][hTyr(3S-OH,4S-OH,3'-OSO3H)][Gln(3R-OH)][Pro(3S-OH,4S-Me)]; lactam 1-C) | 
 |  |  |  |  |  | CCCCCOc1ccc(-c2ccc(-c3ccc(C(=O)N[C@H]4C[C@@H](O)[C@@H](O)NC(=O)[C@@H]5[C@@H](O)[C@@H](C)CN5C(=O)[C@H]([C@@H](C)O)NC(=O)[C@H]([C@H](O)[C@@H](O)c5ccc(O)cc5)NC(=O)[C@@H]5C[C@@H](O)CN5C(=O)[C@H]([C@@H](C)O)NC4=O)cc3)cc2)cc1 [ANIDULAFUNGIN] ({pTerphenylCO(4''-OnC5H11)}-[Orn(4R-OH,5R-OH)]T[Hyp][hTyr(3S-OH,4S-OH)]T[Pro(3S-OH,4S-Me)]; lactam 1-C) | ≤ 0.03
